Measurements reported in PMC7408547, “Bivalent Inhibitor with Selectivity for Trimeric MMP-9 Amplifies Neutrophil Chemotaxis and Enables Functional Studies on MMP-9 Proteoforms” (Cells, 2020).

Legend:
Assay type in all cases: biochemical
[1] = biological target: T1, recombinant human MMP-9 monomers (Homo sapiens, UniProt P14780); assay: Gelatin degradation assay, recombinant MMP-9 monomers; conditions: recombinant human MMP-9 (Sf9) mono
T1 construct: made in house; host or cells: Sf9 insect cells
T1 sequence (P14780 107-707 limits assumed): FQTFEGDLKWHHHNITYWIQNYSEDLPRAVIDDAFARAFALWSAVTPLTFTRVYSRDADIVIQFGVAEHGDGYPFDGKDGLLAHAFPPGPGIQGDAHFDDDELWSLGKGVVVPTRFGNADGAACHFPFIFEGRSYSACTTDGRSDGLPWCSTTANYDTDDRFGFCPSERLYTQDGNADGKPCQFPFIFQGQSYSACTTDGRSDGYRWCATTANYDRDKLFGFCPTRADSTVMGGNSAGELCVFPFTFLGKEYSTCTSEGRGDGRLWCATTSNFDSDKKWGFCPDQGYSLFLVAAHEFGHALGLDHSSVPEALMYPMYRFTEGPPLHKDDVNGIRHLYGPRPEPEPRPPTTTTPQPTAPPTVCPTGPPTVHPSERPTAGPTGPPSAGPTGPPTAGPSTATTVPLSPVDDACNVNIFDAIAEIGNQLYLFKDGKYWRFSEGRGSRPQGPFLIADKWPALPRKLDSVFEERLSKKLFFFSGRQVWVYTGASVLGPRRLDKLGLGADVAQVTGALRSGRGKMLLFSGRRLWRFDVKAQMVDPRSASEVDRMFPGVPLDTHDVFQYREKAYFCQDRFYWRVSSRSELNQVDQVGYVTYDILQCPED
Protocol: (§1) Compounds 5 and 7 were synthesized as previously reported. Full-length human proMMP-9 was produced by recombinant expression in Sf9 insect cells and purified by gelatin-Sepharose chromatography as previously described. Stable full-length proMMP-9 monomers and trimers were separated by glycerol gradient ultracentrifugation as previously described. ProMMP-9 mixture and the separated monomers and trimers were activated by incubation with the catalytic domain of MMP-3 (cat. No. 444217, Merck Millipore, Darmstadt, Germany) as previously described. Activation of proMMP-9 was confirmed by a band shift of ±10 kDa, corresponding to the removal of the auto-inhibitory propeptide domain and by detection of gelatinolytic activity with a previously described gelatin degradation assay. MMP-9 monomers and trimers purified from human neutrophils were purchased (Cat. No. 444,231 and 444232, Sigma-Aldrich, St. Louis, MO, USA). Examples of sample purities and activations can be found in Supplementary Figure S1. Recombinant human proMMP-2 (CHO cell-derived), proMMP-3 (NS0 cell-derived), proMMP-7 (NS0 cell-derived) and proMMP-8 (NS0 cell-derived) were purchased from R & D systems (Minneapolis, MN, USA), dissolved in assay buffer (150 mM NaCl, 5 mM CaCl2, 0.01% Tween-20, 50 mM Tris, pH 7.4) to a concentration of 100 µg/mL and activated by incubation with 1 mM p-aminophenylmercuric acetate for, respectively, 1h, 6h, 2h and 1h. Activation of MMPs was confirmed by a band shift of approximately 10 kDa, corresponding to the removal of the propeptide domain. MMP-14/MT1-MMP (NS0 cell-derived) was also purchased from R & D systems (Minneapolis, MN, USA) and activated by incubation with recombinant human furin (cat. No. 1503-SE-010, R & D systems, Minneapolis, MO, USA) in activation buffer (50 mM Tris, 1 mM CaCl2, 0.5% Brij-35, pH 9) for 1.5 h and activity was tested in assay buffer (50 mM Tris, 3 mM CaCl2, 1 µM ZnCl2, pH 8.5). Active human neutrophil elastase (NE) was purchased from Abcam (Cambridge, UK) and for activity assays of NE the assay buffer was replaced by 200 mM Tris, pH 8.8. ADAM17/TACE (Sf 21 (baculovirus)-derived, R & D systems, Minneapolis, MO, USA) was diluted and evaluated in 25 mM Tris, 2.5 μM ZnCl2, 0.005% Brij-35, pH 9.0. All stocks of the compounds were evaluated for the presence of endotoxin using the EndoZyme II assay (Hyglos bioMérieux, Bernried am Starnberger See, Germany). Endotoxin levels in all concentrated stocks (2.5 mg/mL) were below the accepted limit of 0.5 EU/mL.
(§2) To determine the inhibition of gelatinolytic activity, we used a previously optimized gelatin degradation assay. Activated MMP-9, activated MMP-2, neutrophil elastase or supernatants of stimulated neutrophils, were incubated with different concentrations of inhibitors and incubated for 30 min at 37 °C. Next, dye-quenched gelatin (DQ™-gelatin, Invitrogen, Carlsbad, CA, USA) was added at a final concentration of 2.5 µg/mL and the increase in fluorescence over time was measured with the CLARIOstar microplate reader (BMG Labtech, Ortenberg, Germany). For other MMPs, the OmniMMP substrate peptide (Mca-PLGL-Dpa-AR-NH2, cat. no. BML-P126-0001, Enzo Life Sciences, Farmingdale, NY, USA) was used at a final concentration of 2.5 µg/mL. For ADAM17 the fluorogenic peptide Mca-PLAQAV-Dpa-RSSSR-NH2 (ES003, R & D systems, Minneapolis, MO, USA) and for neutrophil elastase the fluorogenic substrate MeOSuc-AAPV-AMC (cat. no. 324740, Merck Millipore, Darmstadt, Germany) were used. Proteolytic activity was determined by linear regression of the fluorescence curve and the percentage inhibition was calculated through comparison with the positive control (no inhibitors). When testing supernatants from human neutrophils, the assay was performed in the presence of 20 µM neutrophil elastase inhibitor (Elastase Inhibitor IV, Calbiochem, Darmstadt, Germany).

[2] = biological target: T2, human neutrophil-derived MMP-9 monomers (Homo sapiens, UniProt P14780); assay: Gelatin degradation assay, neutrophil-derived MMP-9 monomers; conditions: MMP-9 isolated from human neutrophils, mono
T2 construct: purchased Sigma-Aldrich 444,231; host or cells: human neutrophils (natural protein)
T2 sequence (P14780 107-707 limits assumed): as above
Protocol: as §1, §2

MMP-3 = biological target: T3, MMP-3 (Homo sapiens, UniProt P08254); assay: MMP-3 OmniMMP peptide assay; conditions: OmniMMP substrate peptide
T3 construct: purchased R & D systems; host or cells: NS0 cells
T3 sequence (P08254 100-477): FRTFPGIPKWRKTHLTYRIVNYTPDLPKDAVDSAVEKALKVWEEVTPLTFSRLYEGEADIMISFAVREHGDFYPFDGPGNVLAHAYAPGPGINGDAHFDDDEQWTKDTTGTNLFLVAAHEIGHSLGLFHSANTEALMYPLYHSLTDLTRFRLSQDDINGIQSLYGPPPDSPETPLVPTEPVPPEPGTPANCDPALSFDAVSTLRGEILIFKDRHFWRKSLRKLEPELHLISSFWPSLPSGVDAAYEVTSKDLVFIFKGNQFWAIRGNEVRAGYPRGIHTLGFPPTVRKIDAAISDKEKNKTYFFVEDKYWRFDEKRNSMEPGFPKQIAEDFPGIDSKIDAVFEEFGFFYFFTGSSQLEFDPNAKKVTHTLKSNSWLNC
Protocol: (§3) Compounds 5 and 7 were synthesized as previously reported. Full-length human proMMP-9 was produced by recombinant expression in Sf9 insect cells and purified by gelatin-Sepharose chromatography as previously described. Stable full-length proMMP-9 monomers and trimers were separated by glycerol gradient ultracentrifugation as previously described. ProMMP-9 mixture and the separated monomers and trimers were activated by incubation with the catalytic domain of MMP-3 (cat. No. 444217, Merck Millipore, Darmstadt, Germany) as previously described. […] ADAM17/TACE (Sf 21 (baculovirus)-derived, R & D systems, Minneapolis, MO, USA) was diluted and evaluated in 25 mM Tris, 2.5 μM ZnCl2, 0.005% Brij-35, pH 9.0. All stocks of the compounds were evaluated for the presence of endotoxin using the EndoZyme II assay (Hyglos bioMérieux, Bernried am Starnberger See, Germany). […]
(§4) To determine the inhibition of gelatinolytic activity, we used a previously optimized gelatin degradation assay. […] Next, dye-quenched gelatin (DQ™-gelatin, Invitrogen, Carlsbad, CA, USA) was added at a final concentration of 2.5 µg/mL and the increase in fluorescence over time was measured with the CLARIOstar microplate reader (BMG Labtech, Ortenberg, Germany). […]

MMP-2 = biological target: T4, MMP-2 (Homo sapiens, UniProt P08253); assay: MMP-2 gelatin degradation assay; conditions: gelatin substrate
T4 construct: purchased R & D systems; host or cells: CHO cells
T4 sequence (P08253 110-660): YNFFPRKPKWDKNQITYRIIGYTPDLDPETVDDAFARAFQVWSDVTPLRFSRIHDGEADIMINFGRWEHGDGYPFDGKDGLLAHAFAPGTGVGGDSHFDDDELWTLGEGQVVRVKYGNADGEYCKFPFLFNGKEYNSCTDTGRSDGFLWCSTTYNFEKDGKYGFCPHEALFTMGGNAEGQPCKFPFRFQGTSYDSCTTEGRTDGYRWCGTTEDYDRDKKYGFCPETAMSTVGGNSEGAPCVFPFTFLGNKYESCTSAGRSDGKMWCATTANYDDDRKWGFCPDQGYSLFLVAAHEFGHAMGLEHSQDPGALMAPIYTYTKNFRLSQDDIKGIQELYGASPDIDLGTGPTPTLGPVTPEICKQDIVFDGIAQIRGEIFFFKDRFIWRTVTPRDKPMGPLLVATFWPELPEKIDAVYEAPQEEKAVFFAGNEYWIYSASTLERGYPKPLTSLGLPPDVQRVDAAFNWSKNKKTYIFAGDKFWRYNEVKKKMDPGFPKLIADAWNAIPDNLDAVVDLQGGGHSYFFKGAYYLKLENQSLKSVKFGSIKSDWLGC
Protocol: as §3, §4

Structure (SMILES)	IC25 [1] [nM]	IC50 [1] [nM]	IC75 [1] [nM]	IC25 [2] [nM]	IC50 [2] [nM]	IC75 [2] [nM]	IC50 (MMP-3) [nM]	IC50 (MMP-2) [nM]
CC(C)[C@H](C(=O)O)N(CCNC(=O)c1cccc(C(=O)NCCN([C@@H](C(=O)O)C(C)C)S(=O)(=O)c2ccc(-c3ccccc3)cc2)c1)S(=O)(=O)c1ccc(-c2ccccc2)cc1 [Compound 7]	48	191	754	10	43	181	7.7	4.8
CC(C)[C@H](C(=O)O)N(CCNC(=O)c1ccccc1)S(=O)(=O)c1ccc(-c2ccccc2)cc1 [Compound 5]	392	1520	5859	300	1150	4431	965	1720
